Activity calls are given as the source filed them. The calls are words filed in the database; no cut-off is given here.
Tests used:
[1] = Reduction of propionyl-CoA in human hepatocytes derived from propionic acidemia patient at 100 uM pretreated for 30 mins followed by 13C-isoleucine addition and measured after 1 hr by MS/MS analysis relative to control; assay type: functional, Hepatocyte; design: scale not given: the % may be the effect or the level left; conditions: time 90 min, 1.5 h
[2] = Reduction of propionyl-CoA in human hepatocytes derived from propionic acidemia patient pretreated for 30 mins followed by 13C-isoleucine addition and measured after 1 hr by MS/MS analysis; assay type: functional, cell-based; conditions: hepatocyte
[3] = Reduction of propionyl carnitine in human hepatocytes derived from propionic acidemia patient at 30 uM pretreated for 30 mins followed by 13C-isoleucine addition and measured after 1 hr by MS/MS analysis relative to control; assay type: functional, Hepatocyte; design: scale not given: the % may be the effect or the level left; conditions: time 90 min, 1.5 h
[4] = Reduction of acetyl carnitine in human hepatocytes derived from propionic acidemia patient at 30 uM pretreated for 30 mins followed by 13C-isoleucine addition and measured after 1 hr by MS/MS analysis relative to control; assay type: functional, Hepatocyte; design: scale not given: the % may be the effect or the level left; conditions: time 90 min, 1.5 h
[5] = Reduction of acetyl carnitine in human hepatocytes derived from methylmalonic acidemia patient pretreated for 30 mins followed by 13C-isoleucine addition and measured after 1 hr by MS/MS analysis; assay type: functional, cell-based; conditions: hepatocyte
[6] = Reduction of CoASH in human hepatocytes at 30 uM pretreated for 30 mins followed by 13C-isoleucine addition and measured after 1 hr by MS/MS analysis relative to control; assay type: functional, Hepatocyte; design: scale not given: the % may be the effect or the level left; conditions: time 90 min, 1.5 h
[7] = Drug metabolism in human hepatocytes derived from propionic acidemia patient assessed as formation of 2,2-dimethylbutanoic acid-CoA pretreated for 30 mins followed by 13C-isoleucine addition and measured after 1 hr by MS/MS analysis relative to control; assay type: ADME, cell-based; conditions: Hepatocyte
[8] = Drug metabolism in mouse hepatocytes assessed as formation of 2,2-dimethylbutanoic acid-CoA incubated for 1 hrs by MS/MS analysis; assay type: ADME, cell-based; conditions: Hepatocyte
[9] = Drug metabolism in Beagle dog hepatocytes assessed as formation of 2,2-dimethylbutanoic acid-CoA incubated for 1 hrs by MS/MS analysis; assay type: ADME, cell-based; conditions: Canis lupus familiaris, Hepatocyte
[10] = Drug metabolism in mini-pig hepatocytes assessed as formation of 2,2-dimethylbutanoic acid-CoA incubated for 1 hrs by MS/MS analysis; assay type: ADME, cell-based, Sus scrofa domesticus; conditions: Sus scrofa, Hepatocyte
[11] = Protein binding in Sprague-Dawley rat plasma at 40 uM incubated for 4 hrs by equilibrium dialysis; assay type: ADME, cell-free
[12] = Half life in CD1 mouse at 100 mg/kg, po; assay type: ADME, organism-based; conditions: in vivo
[13] = Oral bioavailability in CD1 mouse at 300 mg/kg; assay type: ADME, organism-based; conditions: in vivo
[14] = Cmax in Sprague-Dawley rat at 10 mg/kg, po; assay type: ADME, organism-based; design: route oral, dose 10 mg/kg; conditions: in vivo
[15] = Half life in Sprague-Dawley rat at 10 mg/kg, iv; assay type: ADME, organism-based; conditions: in vivo
[16] = Volume of distribution in Sprague-Dawley rat at 10 mg/kg, iv; assay type: ADME, organism-based; conditions: in vivo
[17] = Clearance in Sprague-Dawley rat at 10 mg/kg, iv; assay type: ADME, organism-based; conditions: in vivo
[18] = AUC (0 to infinity) in Sprague-Dawley rat at 200 mg/kg, po; assay type: ADME, organism-based; design: route oral, time infinity, dose 200 mg/kg; conditions: in vivo
[19] = Oral bioavailability in Sprague-Dawley rat at 10 mg/kg; assay type: ADME, organism-based; conditions: in vivo
[20] = Oral bioavailability in Sprague-Dawley rat at 50 mg/kg; assay type: ADME, organism-based; conditions: in vivo
[21] = Half life in Sprague-Dawley rat blood at 10 mg/kg, po by quantitative whole-body autoradiography; assay type: ADME, organism-based; conditions: in vivo
[22] = Ratio of drug level in liver to plasma in Sprague-Dawley rat at 10 mg/kg, po measured at 1 hr post dose; assay type: ADME, organism-based; conditions: liver (relative to plasma)
[23] = Drug excretion in Gottingen minipig urine at 10 mg/kg, po using radiolabeled compound by quantitative whole-body autoradiography; assay type: ADME, organism-based, Sus scrofa domesticus; conditions: pig, in vivo, 96 h
[24] = system: Hepatocyte; assay: Cytotoxicity against human hepatocytes assessed as reduction in cell viability using radiolabeled compound; assay type: cell-based
[25] = Drug metabolism in Sprague-Dawley rat plasma assessed as HST5040-carnitine metabolite formation at 10 mg/kg administered as single dose by LC/MS analysis; assay type: ADME, organism-based; conditions: in vivo
[26] = Drug metabolism in Sprague-Dawley rat feces assessed as HST5040-carnitine metabolite formation at 10 mg/kg administered as single dose by LC/MS analysis; assay type: ADME, organism-based; conditions: in vivo
[27] = Drug metabolism in Sprague-Dawley rat feces assessed as HST5040-glycine metabolite formation at 10 mg/kg administered as single dose by LC/MS analysis; assay type: ADME, organism-based; conditions: in vivo
[28] = Drug metabolism in Gottingen minipig urine assessed as HST5040-carnitine metabolite formation at 10 mg/kg administered as single dose by LC/MS analysis; assay type: ADME, organism-based, Sus scrofa domesticus; conditions: pig, in vivo
[29] = Drug metabolism in rat hepatocytes assessed as beta-oxidation by measuring phase1 metabolite formation at 50 uM measured after 4 hrs; assay type: ADME, cell-based, Hepatocyte
[30] = biological target: Cytochrome P450 3A4 (Homo sapiens, UniProt P08684); assay: Time-dependent inhibition of CYP3A4 in human liver microsomes using midazolam as substrate preincubated for 30 mins; assay type: ADME
[31] = biological target: Bile salt export pump (Homo sapiens, UniProt O95342); assay: Inhibition of human BSEP assessed as reduction in BSEP-mediated taurocholate transport at 345 uM relative to control
[32] = biological target: T1, Multidrug and toxin extrusion protein 1 (Homo sapiens, UniProt Q96FL8); assay: Inhibition of human MATE1 assessed as reduction in MATE1-mediated metformin transport at 14900 uM relative to control
T1 sequence (Q96FL8 whole entry): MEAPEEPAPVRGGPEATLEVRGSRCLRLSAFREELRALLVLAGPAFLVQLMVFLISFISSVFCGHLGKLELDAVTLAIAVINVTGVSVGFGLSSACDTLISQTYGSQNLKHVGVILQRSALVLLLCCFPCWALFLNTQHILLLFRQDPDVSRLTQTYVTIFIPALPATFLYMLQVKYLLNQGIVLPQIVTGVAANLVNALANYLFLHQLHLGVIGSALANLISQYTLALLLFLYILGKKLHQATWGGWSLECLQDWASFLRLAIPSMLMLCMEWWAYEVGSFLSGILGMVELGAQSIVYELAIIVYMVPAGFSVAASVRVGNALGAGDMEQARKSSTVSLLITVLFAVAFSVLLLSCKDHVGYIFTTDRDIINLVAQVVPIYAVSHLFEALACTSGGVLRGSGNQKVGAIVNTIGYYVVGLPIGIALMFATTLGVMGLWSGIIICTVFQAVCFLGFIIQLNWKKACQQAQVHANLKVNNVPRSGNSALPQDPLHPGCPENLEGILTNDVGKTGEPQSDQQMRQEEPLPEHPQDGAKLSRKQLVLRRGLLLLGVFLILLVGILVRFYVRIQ

[33] = Induction of toxicity in minipig assessed as increase in albumin to […] ratio at 300 mg/kg/day; assay type: organism-based, Sus scrofa domesticus; conditions: pig, in vivo
[34] = biological target: Solute carrier family 22 member 1 (Homo sapiens) (UniProt O15245); assay: Inhibition of human OCT1 assessed as reduction in OCT1-mediated metformin transport at 14900 uM relative to control
[35] = biological target: Solute carrier family 22 member 2 (Homo sapiens) (UniProt O15244); assay: Inhibition of human OCT2 assessed as reduction in OCT2-mediated metformin transport at 14900 uM relative to control
Solute carrier family 22 member 2 (Homo sapiens), sequence (O15244 whole entry, looked up): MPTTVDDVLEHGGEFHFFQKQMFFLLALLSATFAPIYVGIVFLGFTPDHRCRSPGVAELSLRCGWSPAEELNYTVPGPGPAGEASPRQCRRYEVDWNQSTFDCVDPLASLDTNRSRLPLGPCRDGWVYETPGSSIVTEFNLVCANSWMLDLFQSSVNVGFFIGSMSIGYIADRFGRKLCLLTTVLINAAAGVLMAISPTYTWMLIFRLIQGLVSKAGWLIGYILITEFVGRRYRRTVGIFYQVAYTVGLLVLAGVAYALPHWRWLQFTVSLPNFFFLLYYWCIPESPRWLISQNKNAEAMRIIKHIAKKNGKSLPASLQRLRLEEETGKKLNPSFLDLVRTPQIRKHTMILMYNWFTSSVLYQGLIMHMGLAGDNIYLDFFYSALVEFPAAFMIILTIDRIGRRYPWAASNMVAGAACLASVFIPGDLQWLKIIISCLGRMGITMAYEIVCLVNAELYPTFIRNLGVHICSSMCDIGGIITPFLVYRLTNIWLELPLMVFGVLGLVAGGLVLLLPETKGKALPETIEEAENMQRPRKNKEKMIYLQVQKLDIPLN

Cytochrome P450 3A4, sequence (P08684 whole entry): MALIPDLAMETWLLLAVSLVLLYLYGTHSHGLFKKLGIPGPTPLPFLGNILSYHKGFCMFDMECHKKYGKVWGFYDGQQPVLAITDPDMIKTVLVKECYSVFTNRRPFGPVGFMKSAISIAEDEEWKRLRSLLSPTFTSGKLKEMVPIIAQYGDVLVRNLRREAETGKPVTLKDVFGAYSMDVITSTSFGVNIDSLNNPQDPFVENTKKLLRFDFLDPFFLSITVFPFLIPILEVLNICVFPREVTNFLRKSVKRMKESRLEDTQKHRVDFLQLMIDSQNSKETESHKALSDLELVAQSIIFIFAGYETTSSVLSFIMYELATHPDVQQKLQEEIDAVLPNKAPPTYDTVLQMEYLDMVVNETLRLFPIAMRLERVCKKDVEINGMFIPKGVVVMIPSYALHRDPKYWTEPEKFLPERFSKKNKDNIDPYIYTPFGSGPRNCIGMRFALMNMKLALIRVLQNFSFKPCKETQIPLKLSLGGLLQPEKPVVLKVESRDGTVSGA
Solute carrier family 22 member 1 (Homo sapiens), sequence (O15245 whole entry, looked up): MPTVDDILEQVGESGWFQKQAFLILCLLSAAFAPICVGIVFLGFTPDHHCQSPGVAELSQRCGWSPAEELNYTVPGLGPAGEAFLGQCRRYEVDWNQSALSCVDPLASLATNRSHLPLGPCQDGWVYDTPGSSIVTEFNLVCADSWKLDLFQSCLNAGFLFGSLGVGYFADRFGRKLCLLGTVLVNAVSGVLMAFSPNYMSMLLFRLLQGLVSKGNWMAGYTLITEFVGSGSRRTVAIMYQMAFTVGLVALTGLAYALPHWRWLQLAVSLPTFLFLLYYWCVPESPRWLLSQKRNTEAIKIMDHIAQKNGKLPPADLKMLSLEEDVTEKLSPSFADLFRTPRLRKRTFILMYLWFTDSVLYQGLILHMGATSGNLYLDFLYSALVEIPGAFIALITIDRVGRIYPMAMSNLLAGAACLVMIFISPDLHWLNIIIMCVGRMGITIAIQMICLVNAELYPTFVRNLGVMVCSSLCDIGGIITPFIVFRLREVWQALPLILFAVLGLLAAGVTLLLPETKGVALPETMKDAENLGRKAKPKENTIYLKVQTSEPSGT
Bile salt export pump, sequence (O95342 whole entry): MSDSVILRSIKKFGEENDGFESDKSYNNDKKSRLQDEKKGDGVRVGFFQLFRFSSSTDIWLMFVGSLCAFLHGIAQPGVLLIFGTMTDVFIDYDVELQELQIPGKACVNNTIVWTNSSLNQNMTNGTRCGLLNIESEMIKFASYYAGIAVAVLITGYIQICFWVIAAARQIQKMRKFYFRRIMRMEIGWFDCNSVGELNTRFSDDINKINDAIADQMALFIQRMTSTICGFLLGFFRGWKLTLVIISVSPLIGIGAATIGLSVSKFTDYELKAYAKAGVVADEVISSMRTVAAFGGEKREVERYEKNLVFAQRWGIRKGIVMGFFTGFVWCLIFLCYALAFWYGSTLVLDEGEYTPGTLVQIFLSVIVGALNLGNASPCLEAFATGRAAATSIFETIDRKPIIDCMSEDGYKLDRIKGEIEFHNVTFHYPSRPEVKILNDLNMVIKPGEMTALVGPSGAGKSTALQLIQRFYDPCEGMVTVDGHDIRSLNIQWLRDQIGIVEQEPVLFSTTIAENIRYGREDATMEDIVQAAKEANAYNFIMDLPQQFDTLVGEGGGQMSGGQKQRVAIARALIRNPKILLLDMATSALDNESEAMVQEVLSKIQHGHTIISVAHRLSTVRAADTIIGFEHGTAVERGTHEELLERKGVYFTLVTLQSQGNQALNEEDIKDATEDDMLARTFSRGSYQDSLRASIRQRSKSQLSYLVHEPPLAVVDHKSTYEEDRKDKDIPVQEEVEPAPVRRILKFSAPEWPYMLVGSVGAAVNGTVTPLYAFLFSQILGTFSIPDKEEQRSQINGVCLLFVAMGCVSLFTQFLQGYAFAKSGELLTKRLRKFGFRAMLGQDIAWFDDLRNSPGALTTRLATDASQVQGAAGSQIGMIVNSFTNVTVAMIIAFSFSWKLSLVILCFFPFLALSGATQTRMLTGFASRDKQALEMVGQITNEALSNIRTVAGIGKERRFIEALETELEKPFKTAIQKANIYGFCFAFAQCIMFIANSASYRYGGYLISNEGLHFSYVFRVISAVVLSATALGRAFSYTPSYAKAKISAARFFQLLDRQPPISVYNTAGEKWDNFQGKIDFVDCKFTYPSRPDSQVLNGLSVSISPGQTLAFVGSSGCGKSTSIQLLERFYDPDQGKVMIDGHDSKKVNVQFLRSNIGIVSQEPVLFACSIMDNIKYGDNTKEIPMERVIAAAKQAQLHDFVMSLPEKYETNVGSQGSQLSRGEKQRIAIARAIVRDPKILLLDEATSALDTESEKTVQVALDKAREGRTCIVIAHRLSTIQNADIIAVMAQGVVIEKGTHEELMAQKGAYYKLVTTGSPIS

SMILES: CCC(C)(C)C(=O)O [DIMEBUTIC ACID]
- Activity [1]: 87%
- EC50 [2]: 0.94 µM
- Activity [3]: -69.4%
- Activity [4]: 54%
- EC50 [5]: 4.3 µM
- Activity [6]: -35.2%
- EC50 [7]: 3 µM
- EC50 [8]: 130 µM
- EC50 [9]: 60 µM
- EC50 [10]: 8.3 µM
- PPB [11]: 0%
- half-life [12]: 1.09 h
- F [13]: 177.5%
- Cmax [14]: 4.27 µg/mL
- half-life [15]: 3.93 h
- Vd [16]: 1.22 L/kg
- clearance [17]: 1.04 L/h/kg
- AUC(0-inf) [18]: 244 µg·h/mL
- bioavailability [19]: 57.1%
- bioavailability [20]: 68.3%
- t1/2 [21]: 2.5 h
- Kp at 1 h [22]: 4.6
- Drug excretion [23]: 77.4%
- Activity [24]: Non-Toxic
- Drug metabolism [25]: Metabolite_Detected
- Drug metabolism [26]: Metabolite_Detected
- Drug metabolism [27]: Metabolite_Detected
- Drug metabolism [28]: Metabolite_Detected
- Drug metabolism [29]: Metabolite_Notdetected
- IC50 [30]: > 10000 µM
- inhibition (INH) [31]: Not Active
- inhibition (INH) [32]: Not Active
- Activity [33]: Toxic
- inhibition [34]: inactive
- inhibition [35]: inactive

From ChEMBL document CHEMBL4808180, “Identification of 2,2-Dimethylbutanoic Acid (HST5040), a Clinical Development Candidate for the Treatment of Propionic Acidemia and Methylmalonic Acidemia” (J Med Chem, 2021)
